Test results taken from patent US20150336943A1, “NOVEL BENZODIOXANE-PIPERIDINE DERIVATIVES AND THEIR THERAPEUTIC APPLICATIONS FOR TREATING NEUROPSYCHIATRIC DISORDERS” (PIERRE FABRE MEDICAMENT, priority 2013, published 2015).

Key:
[1] = test system: MK-801-induced hyperactivity; experiment: MK-801-induced hyperactivity test in mice; format: in vivo; conditions: Mus musculus
[2] = biological target: T1, adrenergic receptor alpha2A (Homo sapiens, UniProt P08913); experiment: Inhibition constants (Ki) for adrenergic receptor alpha2A in recombinant cells; format: binding; conditions: read-out: pKi α2A (converted)
T1 construct: expressed in transfected cells; host or cells: recombinant human cells (so in the source)
T1 sequence (P08913 1-465): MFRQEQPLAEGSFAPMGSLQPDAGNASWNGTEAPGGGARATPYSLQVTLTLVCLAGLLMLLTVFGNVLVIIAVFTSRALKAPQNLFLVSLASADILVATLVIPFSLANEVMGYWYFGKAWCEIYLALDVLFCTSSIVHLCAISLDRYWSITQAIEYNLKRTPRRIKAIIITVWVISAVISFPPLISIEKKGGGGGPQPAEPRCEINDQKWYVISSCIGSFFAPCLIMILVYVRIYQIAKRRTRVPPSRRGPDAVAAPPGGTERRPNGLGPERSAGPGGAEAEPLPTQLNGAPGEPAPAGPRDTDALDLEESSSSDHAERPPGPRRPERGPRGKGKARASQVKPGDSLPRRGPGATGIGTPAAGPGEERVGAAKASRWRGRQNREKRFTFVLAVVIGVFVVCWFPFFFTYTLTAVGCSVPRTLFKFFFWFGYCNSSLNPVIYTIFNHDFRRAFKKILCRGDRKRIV
Experimental: (§1) Compounds of formula 1 have been evaluated in vitro as ligands for dopaminergic and noradrenergic receptors and modulators of the activity of these receptors according to the invention in recombinant human cells expressing the receptors. The inhibition constants (Ki) were measured for dopaminergic receptors D2 and D3, and for adrenergic receptors alpha2A, alpha2B and alpha2C, according to the described methods (Newman-Tancredi A, Assie M B, Martel J C, Cosi C, Slot L B, Palmier C, Rauly-Lestienne I, Colpaert F, Vacher B, Cussac D. F15063, a potential antipsychotic with D2/D3 antagonist, 5-HT 1A agonist and D4 partial agonist properties. I. In vitro receptor affinity and efficacy profile. Br J Pharmacol., 2007, 151:237-252). The intrinsic activity of the products for the D2 receptor was measured (Bruins Slot L A, De Vries L, Newman-Tancredi A, Cussac D. Differential profile of antipsychotics at serotonin 5-HT1A and dopamine D2S receptors coupled to extracellular signal-regulated kinase. Eur J Pharmacol, 2006, 534; 63-70. The results obtained for some of these compounds are presented in the following table.

dopaminergic receptor D3 = biological target: T2, dopaminergic receptor D3 (Homo sapiens, UniProt P35462); experiment: Inhibition constants (Ki) for dopaminergic receptor D3 in recombinant cells; format: binding; conditions: read-out: pKi D3 (converted)
T2 construct: expressed in transfected cells; host or cells: recombinant human cells (so in the source)
Experimental: as §1

D2 receptor = biological target: T3, D2 receptor (Homo sapiens, UniProt P14416); experiment: Intrinsic (agonist) activity at the D2 receptor; format: cell-based
T3 construct: expressed in transfected cells; host or cells: recombinant human cells (so in the source)
Experimental: The prior art mentions, for benzodioxane-piperidine derivatives bearing an amide, a urea or an imidazolidinone, as non-selective alpha2-antagonists (WO 97/28157, WO 98/02435); some of these products also have a weak affinity for the D2 dopaminergic receptor (T. Imbert, J. Med. Chem, 2000, 43: 3653-3664). […] Activity as a D2 and D3 receptor agonist was determined according to the described methods (Bruins Slot L A, De Vries L, Newman-Tancredi A, Cussac D. Differential profile of antipsychotics at serotonin 5-HT1A and dopamine D2S receptors coupled to extracellular signal-regulated kinase. Eur J Pharmacol, 2006, 534; 63-70; Bruins Slot L A, Palmier C, Tardif S, Cussac D. Action of novel antipsychotics at human dopamine D3 receptors coupled to G protein and ERK1/2 activation. Neuropharmacology, 2007, 53: 232-241) for the following compounds, such as described in WO 97/28157 and WO 98/02435; • 1-benzyl-3-(2-(1-((2,3-dihydrobenzo[b][1,4]dioxin-2-yl)methyl)piperidin-4-yl)ethyl)imidazolidin-2-one • 1-(2-(1-((2,3-dihydrobenzo[b][1,4]dioxin-2-yl)methyl)piperidin-4-yl)ethyl)-3-methylimidazolidin-2-one • 1-(2,6-dichlorophenyl)-3-(2-(1-((2,3-dihydrobenzo[b][1,4]dioxin-2-yl)methyl)piperidin-4-yl)ethyl)imidazolidin-2-one • 1-(2-(1-((2,3-dihydrobenzo[b][1,4]dioxin-2-yl)methyl)piperidin-4-yl)ethyl)-3-(pyridin-4-yl)imidazolidin-2-one • 3-(2-(1-((2,3-dihydrobenzo[b][1,4]dioxin-2-yl)methyl)piperidin-4-yl)ethyl)-1-phenylimidazolidine-2,4-dione • (S)—N-(2-(1-((2,3-dihydrobenzo[b][1,4]dioxin-2-yl)methyl)piperidin-4-yl)ethyl)-[1,1′-biphenyl]-4-carboxamide • (S)—N-(2-(1-((2,3-dihydrobenzo[b][1,4]dioxin-2-yl)methyl)piperidin-4-yl)ethyl)-4-(1H-pyrrol-1-yl)benzamide • (S)—N-(2-(1-((2,3-dihydrobenzo[b][1,4]dioxin-2-yl)methyl)piperidin-4-yl)ethyl)-4-(pyridin-4-yl)benzamide • (S)—N-(2-(1-((2,3-dihydrobenzo[b][1,4]dioxin-2-yl)methyl)piperidin-4-yl)ethyl)-4-(pyridin-3-yl)benzamide • (S)—N-(2-(1-((2,3-dihydrobenzo[b][1,4]dioxin-2-yl)methyl)piperidin-4-yl)ethyl)-9-oxo-9H-fluorene-1-carboxamide.
as §1

[3] = biological target: T4, adrenergic receptor alpha2C (Homo sapiens, UniProt P18825); experiment: Inhibition constants (Ki) for adrenergic receptor alpha2C in recombinant cells; format: binding; conditions: read-out: pKi α2C (converted)
T4 construct: expressed in transfected cells; host or cells: recombinant human cells (so in the source)
T4 sequence (P18825 1-462): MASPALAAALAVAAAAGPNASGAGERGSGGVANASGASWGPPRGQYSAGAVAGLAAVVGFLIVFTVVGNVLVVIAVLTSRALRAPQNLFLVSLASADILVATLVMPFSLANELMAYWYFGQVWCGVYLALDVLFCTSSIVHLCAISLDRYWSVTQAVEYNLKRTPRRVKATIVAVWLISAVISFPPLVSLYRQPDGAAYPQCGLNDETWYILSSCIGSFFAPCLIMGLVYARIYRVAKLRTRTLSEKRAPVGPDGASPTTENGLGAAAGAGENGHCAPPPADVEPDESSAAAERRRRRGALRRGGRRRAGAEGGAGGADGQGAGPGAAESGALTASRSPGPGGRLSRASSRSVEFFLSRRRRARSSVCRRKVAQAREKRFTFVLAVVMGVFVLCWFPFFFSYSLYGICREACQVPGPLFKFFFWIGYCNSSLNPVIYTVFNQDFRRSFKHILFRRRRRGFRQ
Experimental: as §1

[4] = biological target: T5, adrenergic receptor alpha2B (Homo sapiens, UniProt P18089); experiment: Inhibition constants (Ki) for adrenergic receptor alpha2B in recombinant cells; format: binding; conditions: read-out: pKi α2B (converted)
T5 construct: expressed in transfected cells; host or cells: recombinant human cells (so in the source)
T5 sequence (P18089 1-450): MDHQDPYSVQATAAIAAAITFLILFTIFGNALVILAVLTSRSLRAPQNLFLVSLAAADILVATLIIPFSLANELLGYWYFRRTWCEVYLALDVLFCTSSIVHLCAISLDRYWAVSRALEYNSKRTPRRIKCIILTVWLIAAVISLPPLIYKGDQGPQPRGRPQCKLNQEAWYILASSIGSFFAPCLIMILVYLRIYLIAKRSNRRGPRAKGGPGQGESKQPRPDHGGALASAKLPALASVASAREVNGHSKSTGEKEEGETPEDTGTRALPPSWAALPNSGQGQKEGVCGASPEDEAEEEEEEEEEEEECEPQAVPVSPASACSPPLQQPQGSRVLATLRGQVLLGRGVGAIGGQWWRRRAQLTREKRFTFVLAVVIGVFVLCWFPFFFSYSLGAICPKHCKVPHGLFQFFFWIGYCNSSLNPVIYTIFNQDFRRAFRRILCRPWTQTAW
Experimental: as §1

dopaminergic receptor D2 = biological target: T6, dopaminergic receptor D2 (Homo sapiens, UniProt P14416); experiment: Inhibition constants (Ki) for dopaminergic receptor D2 in recombinant cells; format: binding; conditions: read-out: pKi D2 (converted)
T6 construct: expressed in transfected cells; host or cells: recombinant human cells (so in the source)
Experimental: as §1

T6 sequence (P14416 whole entry): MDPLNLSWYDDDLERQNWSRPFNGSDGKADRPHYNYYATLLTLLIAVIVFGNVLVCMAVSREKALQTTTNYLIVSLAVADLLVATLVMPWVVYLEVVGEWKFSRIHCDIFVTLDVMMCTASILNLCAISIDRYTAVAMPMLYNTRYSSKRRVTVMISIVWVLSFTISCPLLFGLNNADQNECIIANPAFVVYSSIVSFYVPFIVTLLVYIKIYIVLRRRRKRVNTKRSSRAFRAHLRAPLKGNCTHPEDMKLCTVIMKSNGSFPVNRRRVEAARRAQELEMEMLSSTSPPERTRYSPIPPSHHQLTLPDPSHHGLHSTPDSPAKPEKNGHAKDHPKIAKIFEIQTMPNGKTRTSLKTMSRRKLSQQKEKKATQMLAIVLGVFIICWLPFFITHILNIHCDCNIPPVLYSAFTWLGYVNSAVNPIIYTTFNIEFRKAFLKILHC
T3 sequence (P14416 1-414 isoform P14416-2): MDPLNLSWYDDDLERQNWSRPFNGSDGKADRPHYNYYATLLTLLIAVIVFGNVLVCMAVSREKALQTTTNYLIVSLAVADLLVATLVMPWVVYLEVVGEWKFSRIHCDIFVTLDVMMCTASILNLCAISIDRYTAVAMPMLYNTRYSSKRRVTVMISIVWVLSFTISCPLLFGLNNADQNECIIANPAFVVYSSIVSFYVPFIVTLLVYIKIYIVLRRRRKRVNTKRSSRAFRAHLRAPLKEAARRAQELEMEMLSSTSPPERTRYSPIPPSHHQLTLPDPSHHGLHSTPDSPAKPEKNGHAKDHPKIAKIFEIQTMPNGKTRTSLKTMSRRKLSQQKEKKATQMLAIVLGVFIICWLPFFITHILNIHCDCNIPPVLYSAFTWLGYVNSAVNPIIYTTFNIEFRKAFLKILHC
T2 sequence (P35462 whole entry): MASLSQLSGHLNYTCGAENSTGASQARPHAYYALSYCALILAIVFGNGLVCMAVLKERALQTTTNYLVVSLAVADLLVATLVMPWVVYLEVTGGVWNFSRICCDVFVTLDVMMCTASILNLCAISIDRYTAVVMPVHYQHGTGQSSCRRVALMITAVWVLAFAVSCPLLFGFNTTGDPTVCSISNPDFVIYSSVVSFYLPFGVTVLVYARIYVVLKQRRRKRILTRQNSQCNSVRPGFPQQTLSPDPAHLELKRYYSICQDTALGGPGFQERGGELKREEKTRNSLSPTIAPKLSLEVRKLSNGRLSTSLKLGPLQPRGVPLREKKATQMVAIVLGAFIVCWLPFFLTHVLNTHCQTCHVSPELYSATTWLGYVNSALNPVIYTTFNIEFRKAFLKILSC

Structure (SMILES)	ED50 [1] [mg/kg]	Ki [2] [nM]	Ki (dopaminergic receptor D3) [nM]	I.A.: Intrinsic activity on receptor D2 in vitro (D2 receptor)	Ki [3] [nM]	Ki [4] [nM]	Ki (dopaminergic receptor D2) [nM]
O=C1OCCN1CCC1CCN(C[C@H]2COc3ccc(F)cc3O2)CC1 [Example 7, (S)-3-(2-(1-((7-fluoro-2,3-dihydrobenzo[b][1,4]dioxin-2-yl)methyl)piperidin-4-yl)ethyl)oxazolidin-2-one]	0.15	8.71	6.46	36 percentage of that of dopamine	0.851	1.95	14.5
O=C1OCCN1CCC1CCN(C[C@H]2COc3c(F)cc(F)cc3O2)CC1 [Example 10, (S)-3-(2-(1-((5,7-difluoro-2,3-dihydrobenzo[b][1,4]dioxin-2-yl)methyl)piperidin-4-yl)ethyl)oxazolidin-2-one]	0.13	4.57	1.55	6 percentage of that of dopamine	0.537	0.813	4.57
O=C1OCCN1CCC1CCN(C[C@H]2COc3c(Cl)cc(F)cc3O2)CC1 [Example 13, (S)-3-(2-(1-((5-chloro-7-fluoro-2,3-dihydrobenzo[b][1,4]dioxin-2-yl)methyl)piperidin-4-yl)ethyl)oxazolidin-2-one]	0.04	7.08	0.603	16 percentage of that of dopamine	0.955	2.57	0.955
O=C1OC[C@H](Cc2ccccc2)N1CCC1CCN(C[C@H]2COc3ccc(Br)cc3O2)CC1 [Example 26, (S)-4-benzyl-3-(2-(1-(((S)-7-bromo-2,3-dihydrobenzo[b][1,4]dioxin-2-yl)methyl)piperidin-4-yl)ethyl)oxazolidin-2-one]	0.9	34.7	0.447	8 percentage of that of dopamine	2.04	9.55	0.891
O=C1OC[C@H](Cc2ccccc2)N1CCC1CCN(C[C@H]2COc3ccc(OC(F)(F)F)cc3O2)CC1 [Example 32, (S)-4-benzyl-3-(2-(1-(((S)-7-(trifluoromethoxy)-2,3-dihydrobenzo[b][1,4]dioxin-2-yl)methyl)piperidin-4-yl)ethyl)oxazolidin-2-one]	2.4	15.1	0.355		6.61	18.2	1.26
O=C1OC[C@H](Cc2ccccc2)N1CCC1CCN(C[C@H]2COc3cc(O)ccc3O2)CC1 [Example 36]	3.4	6.03	1.29		0.562	1.17	2.14
O=C1OC[C@@H](CO)N1CCC1CCN(C[C@H]2COc3c(F)cc(Cl)cc3O2)CC1 [Example 62, (R)-3-(2-(1-(((S)-7-chloro-5-fluoro-2,3-dihydrobenzo[b][1,4]dioxin-2-yl)methyl)piperidin-4-yl)ethyl)-4-(hydroxymethyl)oxazolidin-2-one]	2.1	30.9	0.347	0 percentage of that of dopamine	1.62	10.5	1.58
O=C1OC[C@@H](CO)N1CCC1CCN(C[C@H]2COc3c(Cl)cc(F)cc3O2)CC1 [Example 63, (R)-3-(2-(1-(((S)-5-chloro-7-fluoro-2,3-dihydrobenzo[b][1,4]dioxin-2-yl)methyl)piperidin-4-yl)ethyl)-4-(hydroxymethyl)oxazolidin-2-one]	0.2	53.7	1.32	5 percentage of that of dopamine	2.69	8.32	3.09
O=C1OC[C@@H](COc2ccccc2)N1CCC1CCN(C[C@H]2COc3ccc(Br)cc3O2)CC1 [Example 69, (R)-3-(2-(1-(((S)-7-bromo-2,3-dihydrobenzo[b][1,4]dioxin-2-yl)methyl)piperidin-4-yl)ethyl)-4-(phenoxymethyl)oxazolidin-2-one]	0.6	200	0.417	13 percentage of that of dopamine	8.71	186	0.24
N#Cc1ccc2c(c1)O[C@@H](CN1CCC(CCN3CCOCC3=O)CC1)CO2 [Example 85, (S)-3-((4-(2-(3-oxomorpholino)ethyl)piperidin-1-yl)methyl)-2,3-dihydrobenzo[b][1,4]dioxine-6-carbonitrile]	0.5	57.5	1.23		6.76	81.3	19.1
O=C1COCCN1CCC1CCN(C[C@H]2COc3c(F)cc(F)cc3O2)CC1 [Example 91, (S)-4-(2-(1-((5,7-difluoro-2,3-dihydrobenzo[b][1,4]dioxin-2-yl)methyl)piperidin-4-yl)ethyl)morpholin-3-one]	0.7	4.9	3.31	24 percentage of that of dopamine	0.437	1.55	15.1
